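Growth conditions: 96-well plates. Treatment: test compound, 48 hours, 5 concentrations. Analysis: linear interpolation between bracketing concentrations; unreached endpoints set to highest concentration. GI50: concentration for 50% inhibition of growth.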 Active and inactive are the calls of the source. No stated cut-off is given here; in the data, active = GI50 up to about 1.1 µM and inactive = higher.
Assays:
Assay in all cases: NCI-60 cell line screen, 48 h
NCI-H460 = test system: NCI-H460
TK-10 = test system: TK-10
SF-539 = test system: SF-539
KM12 = test system: KM12
HCT-116 = test system: HCT-116
OVCAR-3 = test system: OVCAR-3
K562 = test system: K562
HCT-15 = test system: HCT-15
786-0 = test system: 786-0
U-251 = test system: U-251
SK-OV-3 = test system: SK-OV-3
SN12C = test system: SN12C
SNB-75 = test system: SNB-75
HT-29 = test system: HT-29
Malme-3M = test system: Malme-3M
LOX IMVI = test system: LOX IMVI

SMILES | GI50 (NCI-H460) | GI50 (TK-10) | GI50 (SF-539) | GI50 (KM12) | GI50 (HCT-116) | GI50 (OVCAR-3) | GI50 (K562) | GI50 (HCT-15) | GI50 (786-0) | GI50 (U-251) | GI50 (SK-OV-3) | GI50 (SN12C) | GI50 (SNB-75) | GI50 (HT-29) | GI50 (Malme-3M) | GI50 (LOX IMVI)
C#CCN(Cc1ccc2nc(-c3ccccc3)c(Cl)nc2c1)c1cc(OC)c(OC)c(OC)c1 | 46.1 µM (inactive) | > 100 µM (inactive) | > 100 µM (inactive) | > 100 µM (inactive) | 40.5 µM (inactive) | > 100 µM (inactive) | 20.1 µM (inactive) | > 100 µM | > 100 µM (inactive) | 27 µM (inactive) | > 100 µM (inactive) | > 100 µM (inactive) | > 100 µM (inactive) | > 100 µM (inactive) | > 100 µM (inactive) | 14.8 µM (inactive)
Nc1nc(Cl)cc(NCCCCCCCCCCNc2cc(Cl)nc(N)n2)n1 | 5.96 µM (inactive) | 16.5 µM (inactive) | 22.1 µM (inactive) | 10.9 µM (inactive) | 0.196 µM (active) | 1.82 µM (inactive) | 0.0897 µM (active) | 3.55 µM | 21.5 µM (inactive) | 4.21 µM (inactive) | 87.3 µM (inactive) | 71.9 µM (inactive) | 22.6 µM (inactive) | 8.93 µM (inactive) |  | 1.56 µM (inactive)
CC(C)=Cc1cc(C(=O)Nc2ccc(Cl)c(Cl)c2)nc(N)n1 | > 100 µM (inactive) | > 100 µM (inactive) | > 100 µM (inactive) | > 100 µM (inactive) | > 100 µM (inactive) | > 100 µM (inactive) | > 100 µM (inactive) | > 100 µM | > 100 µM (inactive) | > 100 µM (inactive) |  | > 100 µM (inactive) | > 100 µM (inactive) | > 100 µM (inactive) | > 100 µM (inactive) | > 100 µM (inactive)
CN(C)CC(/C(Cc1ccccc1)=N\NC(=O)c1ccncc1)c1ccccc1 (stereo not drawn) |  | 34.2 µM (inactive) | 43.7 µM (inactive) |  |  | 20.1 µM (inactive) | 31.2 µM (inactive) |  | 30 µM (inactive) |  | 38 µM (inactive) | 46.2 µM (inactive) | 36.1 µM (inactive) | 41 µM (inactive) | 28.8 µM (inactive) | 30.2 µM (inactive)
N#Cc1cccnc1Cl | > 100 µM (inactive) | > 100 µM (inactive) | > 100 µM (inactive) | > 100 µM (inactive) |  | > 100 µM (inactive) | > 100 µM (inactive) | > 100 µM | > 100 µM (inactive) | > 100 µM (inactive) | > 100 µM (inactive) | > 100 µM (inactive) | > 76.6 µM (inactive) | > 100 µM (inactive) | > 100 µM (inactive) | > 100 µM (inactive)
O=C1Cc2ccccc2N1/N=C\c1ccc(O)cc1 | > 100 µM (inactive) | > 100 µM (inactive) | 95.7 µM (inactive) | > 100 µM (inactive) | > 100 µM (inactive) | > 100 µM (inactive) | 61.4 µM (inactive) | 91 µM | > 100 µM (inactive) | > 100 µM (inactive) | > 100 µM (inactive) | > 100 µM (inactive) | 18.1 µM (inactive) | > 100 µM (inactive) | > 100 µM (inactive) | > 100 µM (inactive)
O=C1C=Cc2noc3cccc1c23 |  | 18.4 µM (inactive) | 16.4 µM (inactive) | 4.85 µM (inactive) | 2.11 µM (inactive) | 3.31 µM (inactive) | 2.5 µM (inactive) | 3.08 µM | 7.08 µM (inactive) | 13.4 µM (inactive) | 18.1 µM (inactive) | 11.7 µM (inactive) | 11.6 µM (inactive) | 15.1 µM (inactive) | 12.3 µM (inactive) | 3.15 µM (inactive)
CC(C)COC(=O)c1ccc(/N=C\c2ccc(/C=N/c3ccc(C(=O)OCC(C)C)cc3)cc2)cc1 | > 100 µM (inactive) | > 100 µM (inactive) | > 100 µM (inactive) | > 100 µM (inactive) |  | > 100 µM (inactive) | > 100 µM (inactive) | > 100 µM | > 100 µM (inactive) | > 100 µM (inactive) | > 100 µM (inactive) | > 100 µM (inactive) | > 100 µM (inactive) | > 100 µM (inactive) | > 100 µM (inactive) | > 100 µM (inactive)
O=C(N[C@@H]1C=CCC[C@@H]1c1ccccc1)OCc1ccccc1 | 17.9 µM (inactive) | 15.3 µM (inactive) | 18.9 µM (inactive) | 17.5 µM (inactive) | 18.1 µM (inactive) | 16.8 µM (inactive) | 23.7 µM (inactive) | 17.9 µM | 18.7 µM (inactive) | 17.5 µM (inactive) | 30.4 µM (inactive) | 16.9 µM (inactive) | 19.6 µM (inactive) | 23.7 µM (inactive) | 19.3 µM (inactive) | 15.2 µM (inactive)
COc1cc(/C=C(\NC(=O)c2ccccc2)c2nc3cncnc3[nH]2)cc(OC)c1OC |  | > 100 µM (inactive) | > 100 µM (inactive) | > 100 µM (inactive) |  | > 100 µM (inactive) | > 100 µM (inactive) | > 100 µM | > 100 µM (inactive) | > 100 µM (inactive) | > 100 µM (inactive) | > 100 µM (inactive) |  | > 100 µM (inactive) | > 100 µM (inactive) | 
CNc1nc(N)cc(O)n1 | > 100 µM (inactive) | > 100 µM (inactive) |  | > 100 µM (inactive) | > 100 µM (inactive) | > 100 µM (inactive) | > 100 µM (inactive) | > 100 µM | > 100 µM (inactive) | > 100 µM (inactive) | > 100 µM (inactive) | > 100 µM (inactive) | > 100 µM (inactive) | > 100 µM (inactive) | > 100 µM (inactive) | > 100 µM (inactive)
O=C(CCc1ccccc1)On1nnc2ccccc2c1=O | > 100 µM (inactive) | 26.5 µM (inactive) | > 100 µM (inactive) | > 100 µM (inactive) | > 100 µM (inactive) | > 100 µM (inactive) | > 100 µM (inactive) | > 100 µM | > 100 µM (inactive) | > 100 µM (inactive) | > 100 µM (inactive) | > 100 µM (inactive) | > 100 µM (inactive) | > 100 µM (inactive) | > 100 µM (inactive) | > 100 µM (inactive)
C/C(=N\NS(=O)(=O)c1ccc(C)cc1)c1ccc[n+]([O-])n1 | > 100 µM (inactive) |  | > 100 µM (inactive) | > 100 µM (inactive) | > 100 µM (inactive) | 39.5 µM (inactive) | 26.3 µM (inactive) | > 100 µM | > 100 µM (inactive) | > 100 µM (inactive) | > 100 µM (inactive) | > 100 µM (inactive) | 37.9 µM (inactive) | > 100 µM (inactive) |  | 
O=C1C2c3[nH]c4ccccc4c3C3CCCC3C2C(=O)N1c1ccccc1 (stereo not drawn) | 91.8 µM (inactive) | > 100 µM (inactive) | > 100 µM (inactive) | > 100 µM (inactive) |  | > 100 µM (inactive) | > 100 µM (inactive) | 78 µM | > 100 µM (inactive) | > 100 µM (inactive) | > 100 µM (inactive) | > 100 µM (inactive) | 40.6 µM (inactive) | > 100 µM (inactive) | > 100 µM (inactive) | > 100 µM (inactive)
CCOc1ccc(-c2oc(/C=N/NS(=O)(=O)c3ccc(C)cc3)c([N+](=O)[O-])c2-c2ccc(OCC)cc2)cc1 | 13.2 µM (inactive) | 22 µM (inactive) | 16.1 µM (inactive) | 8.81 µM (inactive) | 2.03 µM (inactive) | 15.6 µM (inactive) | 3.79 µM (inactive) | 5.65 µM | 12.4 µM (inactive) | 8.22 µM (inactive) | 15.4 µM (inactive) | 12.8 µM (inactive) | 4.19 µM (inactive) | 5.19 µM (inactive) | 19.1 µM (inactive) | 3.46 µM (inactive)
COc1ccc(OC)c(N2CC(N)C2=O)c1 (stereo not drawn) | > 100 µM (inactive) | > 100 µM (inactive) | > 100 µM (inactive) | > 100 µM (inactive) | > 100 µM (inactive) | > 100 µM (inactive) | > 100 µM (inactive) | > 100 µM | > 100 µM (inactive) | > 100 µM (inactive) | > 100 µM (inactive) | > 100 µM (inactive) | 86.7 µM (inactive) | > 100 µM (inactive) | > 100 µM (inactive) | > 100 µM (inactive)
C[C@H](CCC1SC1(C)C)C1CCC2(C)C3=C(CC[C@]12C)[C@@]1(C)CC[C@H](O)C(C)(C)C1CC3 (stereo partly drawn) | > 100 µM (inactive) | > 100 µM (inactive) |  | > 100 µM (inactive) | > 100 µM (inactive) | > 100 µM (inactive) | > 100 µM (inactive) | > 100 µM | > 100 µM (inactive) | > 10 µM (inactive) | > 100 µM (inactive) | > 100 µM (inactive) | 75.2 µM (inactive) | > 100 µM (inactive) | > 100 µM (inactive) | > 100 µM (inactive)
C[C@@]1(Cc2ccccc2)C(=O)N2[C@@H](CO)C(c3ccccc3)O[C@]2(C)c2ccccc21 (stereo partly drawn) |  | > 100 µM (inactive) | > 100 µM (inactive) | > 100 µM (inactive) | > 100 µM (inactive) | > 100 µM (inactive) | > 100 µM (inactive) | > 100 µM | 52.7 µM (inactive) | > 100 µM (inactive) | > 100 µM (inactive) |  | 32 µM (inactive) |  |  | > 100 µM (inactive)
O=C1c2ccccc2C(=O)c2c1ccc(O)c2O [ATHRAQUINONES A] | 38.9 µM (inactive) | > 100 µM (inactive) | 42.6 µM (inactive) | 57.8 µM (inactive) | 32.4 µM (inactive) | 32.9 µM (inactive) | 36.1 µM (inactive) | 37.1 µM | 63 µM (inactive) | 38.6 µM (inactive) |  | 42.3 µM (inactive) | 28.2 µM (inactive) | 36 µM (inactive) |  | 37.8 µM (inactive)
